In patent EP0199840B1, “Use of a diamine for the preparation of a softener for erythrocytes” (Barnikol, Wolfgang, Prof. Dr.Dr., priority 1985, dated 1986):

Tested on: Erythrozyten
Assay: Erythrocyte filtration test: specific filtration time (FZsp) of an 8% suspension of purified erythrocytes through 5 µm polycarbonate (Nuclepore) membrane filters
Assay type: cell-based, gesunden Probanden
Conditions: for Wirkung auf FZsp compared with Ausführungsbeispiel 1 (result in words): carried out as in Ausführungsbeispiel 1 (0 to 100 mmol/I; 1,5 Stunden; pH=7,4; 22°C; there FZsp reduced to 30% at 50 mmol/I)
Excerpt: Es wurde nun gefunden, daß es, um die Erythrozyten-weichmachende Wirkung einer Substanz mit Hilfe eines Filtrationstests festzustellen, unerlässlich ist, die Erythrozyten quantitativ von den andern Blutzellen abzutrennen, weil auch sehr geringe Zellverunreinigungen den Test übermä-βig stark stören Daher wurde ein Testverfahren einschließlich eines Reinigungsverfahrens mit Hilfe der Dichtezentrifugation in synthetischem Polysaccharid (Ficoll® 400, Deutsche Pharmazia, Freiburg, Bundesrepublik Deutschland) erarbeitet; als Literaturstelle sei hingewiesen auf: Barnikol et al., Funkt, Biol. Med. 1 (1982), 242-244.
Im Prinzip wird hierbei die sogenannte spezifische Filtrierzeit (FZsp) einer 8%igen Erythrozytensuspension an 5 um Polycarbonat (Nuclepore-^@) Membran-filtern bestimmt. Das Meßverfahren wurde insofern gegenüber der ursprünglichen Vorschrift modifiziert, als nunmehr lediglich die Anfangsgeschwindigkeit gemessen wird, also je nach Dauer variable Tropfenzahlen vermessen werden, sowie der Zeitbedarf für eine bestimmte Tropfenzahl, nämlich 10, bereichnet wurde.
Es gilt die Formel [formula] wobei: • t=Filtrierzeit für 10 Tropfen der Suspension • to=Filtrierzeit für 10 Tropfen des Suspensionsmittels • FZsp ist ein Maß für die Steifigkeit.
Erthrozyten von mehreren gesunden Probanden werden wie oben angegeben (Barnikol et al., 1982) präpariert und eine 8 Vol.-%ige Zellsuspension hergestellt unter Zugabe von Glukose (100 mg/dl). Den Suspensionen werden steigende Mengen von DMAEA von 0 bis 100 mmol/I zugesetzt. Die Proben werden 1,5 Stunden unter langsamen Schwenken belassen bei pH=7,4 und 22°C und danach FZsp gemessen: Bei 50 mmol/I wird FZsp auf 30% des Ausgangswertes verringert.

Row | Compound | Wirkung auf FZsp compared with Ausführungsbeispiel 1 (result in words) | other results
1 | CCN(CC)CCN(CC)CC [TEEDA, Tetraethylethylendiamin] | gleich Wirkung | 
2 | CC(=O)CCCCn1c(=O)c2c(ncn2C)n(C)c1=O [Pentoxifyllin, 3,7-Dimethyl-1-(5-oxohexyl)-xanthin, reference compound] |  | Wirkung auf FZsp (result in words) (0,1 mmol/1 to 15 mmol/I, 22°C, pH=7,40, FZsp not significantly reduced): unwirksam
3 | CN(C)CCN [DMAEA, Dimethylaminoethylamin] |  | activity at 50000 µM (Homo sapiens, Erythrocyte, 1.5 h, pH 7.4, 50 mmol/I, 8 Vol.-%ige Zellsuspension with Glukose (100 mg/dl), 1,5 Stunden, pH=7,4, 22°C, read-out: FZsp (spezifische Filtrierzeit), % des Ausgangswertes): 30%
4 | CN(C)CCN(C)C [TMEDA, Tetramethylethylendiamin] | gleiche Wirkung | 
